Source: patent publication US5989832A, “Method for screening for non-tetracycline efflux pump inhibitors” (Microcide Pharmaceuticals, Inc., priority 1995, dated 1999)
Entries after “also recorded” stand apart in the source; their conditions may differ. Like-named read-outs stand apart in the source and are kept apart here. Peptide text beside a SMILES is read from it.

Experiments:
P. aeruginosa K385 = conditions: cited from earlier work
[1] = system: P. aeruginosa strain 799/61; assay: [3H]-tetracycline accumulation assay, strain 799/61 without efflux pumps; type: cell-based, Pseudomonas aeruginosa; conditions: CCCP added
Procedure: A tetracycline accumulation assay was set up to measure the activity of efflux pumps in P. aeruginosa. The assay measures the accumulation of [3H]-tetracycline in bacteria and was optimized for measuring tetracycline accumulation in P. aeruginosa.
A new tetracycline steady state equilibrium is reached when CCCP is added to the cell suspension and pH equilibrates in both sides of the membrane.

[2] = system: P. aeruginosa strain K385; assay: microbe, parasite or virus in culture; type: cell-based; conditions: Pseudomonas aeruginosa, K385, 20 h, read-out: growth inhibition in the absence of ciprofloxacin
P. aeruginosa K799/61 [3] = assay: Susceptibility to tetracycline and ciprofloxacin, pump deficient mutant K799/61
E. coli HN818 = assay: Susceptibility to acridine orange, AcrAB pump deficient strain HN818; type: cell-based; conditions: acridine orange alone
Text: The effect of L-phenylalanyl-L-arginyl-β-naphthylamide was also studied on an AcrAB pump deficient mutant of E. coli which was obtained by transposon mutagenesis in the laboratory of H. Nikaido.

mexA-mexB-oprM = conditions: insertion mutagenesis; cited from earlier work
[4] = system: wild-type strains of P. aeruginosa; conditions: cited from earlier work
P. aeruginosa K799/61 [5] = conditions: mutant strain k799/61; cited from earlier work
[6] = system: P. aeruginosa PAO1, PAO4098E, K385 and 799/61; assay: Tetracycline accumulation in four P. aeruginosa strains (basal level); type: cell-based, Pseudomonas aeruginosa
Text: Alternatively, efflux pumps are identified by their ability to lower the accumulation of a substrate in a cell. Efflux pumps involved in drug resistance can be identified because they confer resistance to antibiotics. Efflux pumps involved in multidrug resistance in bacteria usually give an intermediate level of resistance to a broad range of antibiotics. Specific mechanism of resistance, including specific efflux pumps, give a much higher level of resistance to one antibiotic or a group of structurally related antibiotics. […] To identify whether an efflux pump is involved in antibiotic resistance in a given strain, accumulation experiments should be performed using antibiotics that it is suspected are exported by the efflux pump. The protein pattern in electrophoresis of cytoplasmic membrane proteins should be studied to identify the overexpression of a protein or the appearance of a new band in the protein pattern using gel electrophoresis. For Gram-negative bacteria, the outer membrane proteins should also be studied. Since efflux pumps are a common occurrence in most bacteria, the basal level of antibiotic susceptibility of a wild type might be caused by naturally occurring efflux pumps. […] Mutants that overexpress the pumps can be isolated using antibiotic-containing media. These mutants will be more resistant to antibiotics and will accumulate lower levels of antibiotics. […]

AcrAE efflux system = conditions: cited from earlier work

Compound: c1ccc(-c2ccccn2)nc1 [2,2'-dipyridyl]
- susceptibility associated with production of a 50-kDa outer membrane protein (P. aeruginosa K385): decreased susceptibility

Compound: N#CC(C#N)=NNc1cccc(Cl)c1 [CCCP, carbonyl cyanide m-chlorophenylhydrazone]
- tetracycline accumulation [1]: lowered the tetracycline accumulation

Compound: N=C(N)NCCC[C@H](NC(=O)[C@@H](N)Cc1ccccc1)C(=O)Nc1ccc2ccccc2c1 [L-phenylalanyl-L-arginyl-β-naphthylamide] (HELM PEPTIDE1{F.R.[c1ccc2cc(N[*:1])ccc2c1]}$$$$V2.0)
- inhibition at 10 µg/mL [2]: 1%
- effect on susceptibility to tetracycline and ciprofloxacin (P. aeruginosa K799/61 [3]): no effect

Compound: CN(C)c1ccc2cc3ccc(N(C)C)cc3nc2c1 [acridine orange]
- susceptibility of HN818 to acridine orange versus parent strain (E. coli HN818): more susceptible to acridine orange than the parent strain

Compound: O=C(N[C@H](CO)[C@H](O)c1ccc([N+](=O)[O-])cc1)C(Cl)Cl [chloramphenicol]
- susceptibility of the strain with inactivated operon (mexA-mexB-oprM): almost as susceptible as E. coli
- efflux by wild-type strains [4]: very effectively
- capability of pumping out (P. aeruginosa K799/61 [5]): essentially incapable of pumping out

Compound: CCn1cc(C(=O)O)c(=O)c2cc(F)c(N3CCNCC3)cc21 [norfloxacin]
- efflux by wild-type strains [4]: very effectively

Compound: CN(C)C1C(=O)C(C(N)=O)=C(O)C2(O)C(=O)C3=C(O)c4c(O)cccc4C(C)(O)C3CC12 (stereo not shown) [tetracycline]
- susceptibility of the strain with inactivated operon (mexA-mexB-oprM): almost as susceptible as E. coli
- efflux by wild-type strains [4]: very effectively
- tetracycline accumulation, efflux pump overproducer strains ([6]; PAO4098E and K385): accumulated lower amounts of tetracycline
- intracellular accumulation of tetracycline, strain 799/61 versus others ([6]; strain 799/61): highest internal concentration; also recorded: accumulated more tetracycline than the wild type PAO1
- capability of pumping out (P. aeruginosa K799/61 [5]): essentially incapable of pumping out

Compound: acriflavine
- steady-state accumulation of acriflavine (AcrAE efflux system; acrA mutant vs wild type): increases at least fivefold
- steady-state accumulation of acriflavine (AcrAE efflux system; wild-type acrA+ strain): extremely low
